Reference: patent publication US20230081390A1, “INHIBITORS OF RAF KINASES” (Kinnate Biopharma Inc., priority 2019, published 2023)

Each compound was assayed against human RAF1 (Homo sapiens, UniProt P04049) (assay: Protein kinase assay (33P-ATP filter binding), human RAF1, 10-dose IC50). Details: MEK1 (K97R) substrate 3 micromolar, ATP 10 micromolar, read-out: RAF-1 IC50.
Sequence of human RAF1 (P04049 whole entry): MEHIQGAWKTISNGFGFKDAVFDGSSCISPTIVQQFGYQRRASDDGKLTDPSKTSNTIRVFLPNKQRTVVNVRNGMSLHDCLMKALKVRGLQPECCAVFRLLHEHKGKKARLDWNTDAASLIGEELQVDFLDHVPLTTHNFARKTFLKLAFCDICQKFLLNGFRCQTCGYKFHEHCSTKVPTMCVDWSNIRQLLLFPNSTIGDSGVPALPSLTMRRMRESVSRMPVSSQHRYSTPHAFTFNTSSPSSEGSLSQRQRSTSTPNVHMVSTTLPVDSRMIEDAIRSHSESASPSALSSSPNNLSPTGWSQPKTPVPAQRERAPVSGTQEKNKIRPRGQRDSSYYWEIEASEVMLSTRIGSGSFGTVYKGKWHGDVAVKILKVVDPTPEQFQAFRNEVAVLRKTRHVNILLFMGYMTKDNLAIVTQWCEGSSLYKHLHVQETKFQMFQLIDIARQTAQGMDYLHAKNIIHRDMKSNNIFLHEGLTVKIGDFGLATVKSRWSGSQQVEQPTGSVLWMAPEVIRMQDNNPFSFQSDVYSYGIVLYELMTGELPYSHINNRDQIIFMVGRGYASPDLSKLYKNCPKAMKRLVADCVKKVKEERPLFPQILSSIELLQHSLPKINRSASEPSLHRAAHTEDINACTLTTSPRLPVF
Format: biochemical
Experimental: In brief, for each reaction, kinase and substrate were mixed in a buffer containing 20 mM HEPES (pH 7.5), 10 mM MgCl2, 1 mM EGTA, 0.02% Brij35, 0.02 mg/mL BSA, 0.1 mM Na3VO4, 2 mM DTT, and […]. All compounds were solubilized in DMSO. Compounds were then added to each reaction mixture via acoustic dispense using an ECHO 550 nanoliter dispenser. For human RAF1 testing, human MEK1 (K97R) was used as a substrate at a concentration of 3 micromolar, with a final ATP concentration of 10 micromolar. […] Reactions were carried out at room temperature for 2 hr and spotted onto P81 ion exchange cellulose chromatography paper (Reaction Biology). […] The percent remaining kinase activity relative to a vehicle-containing (DMSO) kinase reaction was calculated for each kinase/inhibitor pair. IC50 values were calculated using Prism 5 (GraphPad).
Work on `Cc1cc(F)c(NC(=O)N2CCCC3C2C3C(F)(F)F)cc1-c1cc(OCCO)nc(N2CCOCC2)c1` (single isomer, unassigned) [Example 108, N-[2-fluoro-5-[2-(2-hydroxyethoxy)-6-(morpholin-4-yl)pyridin-4-yl]-4-methylphenyl]-7-(trifluoromethyl)-2-azabicyclo[4.1.0]heptane-2-carboxamide] yielded an IC50 of 1000 to 10000 nM. In the case of `Cc1cc(F)c(NC(=O)N2CCCC3C2C3C(F)(F)F)cc1-c1cc(OCCO)nc(N2CCOCC2)c1` (single isomer, unassigned) [Example 109, N-[2-fluoro-5-[2-(2-hydroxyethoxy)-6-(morpholin-4-yl)pyridin-4-yl]-4-methylphenyl]-7-(trifluoromethyl)-2-azabicyclo[4.1.0]heptane-2-carboxamide], the IC50 is reported as < 10 nM. With `Cc1cc(F)c(NC(=O)N2CCCC3C2C3C(F)(F)F)cc1-c1cc(OCCO)nc(N2CCOCC2)c1` (single isomer, unassigned) [Example 110, N-[2-fluoro-5-[2-(2-hydroxyethoxy)-6-(morpholin-4-yl)pyridin-4-yl]-4-methylphenyl]-7-(trifluoromethyl)-2-azabicyclo[4.1.0]heptane-2-carboxamide] the IC50 was < 10 nM. `Cc1cc(F)c(NC(=O)N2CCCC3C2C3C(F)(F)F)cc1-c1cc(OCCO)nc(N2CCOCC2)c1` (single isomer, unassigned) [Example 111, N-[2-fluoro-5-[2-(2-hydroxyethoxy)-6-(morpholin-4-yl)pyridin-4-yl]-4-methylphenyl]-7-(trifluoromethyl)-2-aabicyclo[4.1.0]heptane-2-carboxamide] was tested, and the IC50 was < 10 nM. With `Cc1cc(F)c(NC(=O)N2CCOC(C(F)(F)F)C2C)cc1-c1cc(OCCO)nc(N2CCOCC2)c1` (single isomer, unassigned) [Example 112] the IC50 was < 10 nM. For `Cc1cc(F)c(NC(=O)N2CCOC(C(F)(F)F)C2C)cc1-c1cc(OCCO)nc(N2CCOCC2)c1` (single isomer, unassigned) [Example 113], the IC50 was < 10 nM. In the case of `Cc1ccc(NC(=O)N2CC[C@@H](SC(F)(F)F)C2)cc1-c1cc(OCCO)nc(N2CCOCC2)c1` (single isomer, unassigned) [Example 117], the IC50 is reported as < 10 nM. For `Cc1ccc(NC(=O)N2CC[C@H](SC(F)(F)F)C2)cc1-c1cc(OCCO)nc(N2CCOCC2)c1` (single isomer, unassigned) [Example 118], the IC50 was < 10 nM. In the case of `Cc1ccc(NC(=O)N2CC[C@@H](C(F)(F)F)C2)cc1-c1cnc(OC2CCOCC2)c(N2CCOCC2)c1` (single isomer, unassigned) [Example 119], the IC50 is reported as < 10 nM. With `Cc1ccc(NC(=O)N2CC[C@H](C(F)(F)F)C2)cc1-c1cnc(OC2CCOCC2)c(N2CCOCC2)c1` (single isomer, unassigned) [Example 120] the IC50 was < 10 nM. `Cc1ccc(NC(=O)N2CCC3(CCC3(F)F)C2)cc1-c1cc(OCCO)nc(N2CCOCC2)c1` (single isomer, unassigned) [Example 121, 1,1-difluoro-N-[3-[2-(2-hydroxyethoxy)-6-(morpholin-4-yl)pyridin-4-yl]-4-methylphenyl]-6-azaspiro[3.4]octane-6-carboxamide] was tested, and the IC50 was < 10 nM. `Cc1ccc(NC(=O)N2CCC3(CCC3(F)F)C2)cc1-c1cc(OCCO)nc(N2CCOCC2)c1` (single isomer, unassigned) [Example 122, 1,1-difluoro-N-[3-[2-(2-hydroxyethoxy)-6-(morpholin-4-yl)pyridin-4-yl]-4-methylphenyl]-6-azaspiro[3.4]octane-6-carboxamide] was tested, and the IC50 was < 10 nM. For `Cc1ccc(NC(=O)N2CC[C@@H](OC(F)(F)F)C2)cc1-c1cc(OCCO)nc(N2CCOCC2)c1` (single isomer, unassigned) [Example 124], the IC50 was < 10 nM. With `Cc1cc(F)c(NC(=O)N2CC[C@@H](CC(F)(F)F)C2)cc1-c1cc(O[C@H](C)CO)nc(N2CCOCC2)c1` (single isomer, unassigned) [Example 182] the IC50 was < 10 nM. In the case of `Cc1cc(F)c(NC(=O)N2CC[C@H](CC(F)(F)F)C2)cc1-c1cc(OC[C@@H](C)O)nc(N2CCOCC2)c1` (single isomer, unassigned) [Example 183], the IC50 is reported as < 10 nM. `Cc1cc(F)c(NC(=O)N2CC[C@H](CC(F)(F)F)C2)cc1-c1cc(O[C@H](C)CO)nc(N2CCOCC2)c1` (single isomer, unassigned) [Example 184] was tested, and the IC50 was < 10 nM. With `Cc1ccc(NC(=O)N2CC[C@@H](CC(F)(F)F)C2)cc1-c1cnc(OC2CCOCC2)c(N2CCOCC2)c1` (single isomer, unassigned) [Example 193] the IC50 was < 10 nM. For `Cc1ccc(NC(=O)N2CC[C@H](CC(F)(F)F)C2)cc1-c1cnc(OC2CCOCC2)c(N2CCOCC2)c1` (single isomer, unassigned) [Example 194], the IC50 was < 10 nM. In the case of `Cc1cc(F)c(NC(=O)N2CCC(CC(F)(F)F)C2)cc1-c1cc(OCCO)nc(N2CCOCC2)c1` (stereo in doubt) [Example 37, (3R)-N-[2-fluoro-5-[2-(2-hydroxyethoxy)-6-(morpholin-4-yl)pyridin-4-yl]-4-methylphenyl]-3-(2,2,2-trifluoroethyl)pyrrolidine-1-carboxamide], the IC50 is reported as < 10 nM. With `CC(C#N)=C1CCN(C(=O)Nc2cc(-c3cc(OCCO)nc(N4CCOCC4)c3)c(C)cc2F)C1` (stereo in doubt) [Example 97, (3E)-3-(1-cyanoethylidene)-N-[2-fluoro-5-[2-(2-hydroxyethoxy)-6-(morpholin-4-yl)pyridin-4-yl]-4-methylphenyl]pyrrolidine-1-carboxamide] the IC50 was < 10 nM. In the case of `Cc1ccc(NC(=O)N2CC[C@H](OC(F)(F)F)C2)cc1-c1cc(OCC(C)O)nc(N2CCOCC2)c1` (stereo in doubt) [Example 152, (3S)-N-(3-[2-[(2R)-2-hydroxypropoxy]-6-(morpholin-4-yl)pyridin-4-yl]-4-methylphenyl)-3-(trifluoromethoxy)pyrrolidine-1-carboxamide], the IC50 is reported as < 10 nM. In the case of `Cc1ccc(NC(=O)N2CC[C@H](OC(F)(F)F)C2)cc1-c1cc(OC(C)CO)nc(N2CCOCC2)c1` (stereo in doubt) [Example 153, (3S)-N-[3-(2-[[(2R)-1-hydroxypropan-2-yl]oxy]-6-(morpholin-4-yl)pyridin-4-yl)-4-methylphenyl]-3-(trifluoromethoxy)pyrrolidine-1-carboxamide], the IC50 is reported as < 10 nM. With `Cc1cc(F)c(NC(=O)N2CC[C@@H](C(F)(F)F)C2)cc1-c1cnc(OCCO)c(N2CCOCC2)c1` [Example 12] the IC50 was < 10 nM. In the case of `Cc1cc(F)c(NC(=O)N2CC[C@H](C(F)(F)F)C2)cc1-c1cnc(OCCO)c(N2CCOCC2)c1` [Example 13, (3S)-N-[2-fluoro-5-[6-(2-hydroxyethoxy)-5-(morpholin-4-yl)pyridin-3-yl]-4-methylphenyl]-3-(trifluoromethyl)pyrrolidine-1-carboxamide], the IC50 is reported as < 10 nM. `Cc1cc(F)c(NC(=O)N2CCC3(CC3)C2)cc1-c1cc(OCCO)nc(N2CCOCC2)c1` [Example 18, N-[2-fluoro-5-[2-(2-hydroxyethoxy)-6-(morpholin-4-yl)pyridin-4-yl]-4-methylphenyl]-5-azaspiro[2.4]heptane-5-carboxamide] was tested, and the IC50 was < 10 nM. In the case of `Cc1cc(F)c(NC(=O)N2CCC(C)(C)C2)cc1-c1cc(OCCO)nc(N2CCOCC2)c1` [Example 19, N-[2-fluoro-5-[2-(2-hydroxyethoxy)-6-(morpholin-4-yl)pyridin-4-yl]-4-methylphenyl]-3,3-dimethylpyrrolidine-1-carboxamide], the IC50 is reported as < 10 nM. In the case of `Cc1cc(F)c(NC(=O)N2CCC(F)(F)CC2)cc1-c1cc(OCCO)nc(N2CCOCC2)c1` [Example 20, 4,4-difluoro-N-[2-fluoro-5-[2-(2-hydroxyethoxy)-6-(morpholin-4-yl)pyridin-4-yl]-4-methylphenyl]piperidine-1-carboxamide], the IC50 is reported as 10 to 100 nM. `Cc1cc(F)c(NC(=O)N2CC(C(F)F)C2)cc1-c1cc(OCCO)nc(N2CCOCC2)c1` [Example 21, 3-(difluoromethyl)-N-[2-fluoro-5-[2-(2-hydroxyethoxy)-6-(morpholin-4-yl)pyridin-4-yl]-4-methylphenyl]azetidine-1-carboxamide] gave an IC50 of 10 to 100 nM. For `Cc1cc(F)c(NC(=O)N2CC(F)(F)C(F)(F)C2)cc1-c1cc(OCCO)nc(N2CCOCC2)c1` [Example 22, 3,3,4,4-tetrafluoro-N-[2-fluoro-5-[2-(2-hydroxyethoxy)-6-(morpholin-4-yl)pyridin-4-yl]-4-methylphenyl]pyrrolidine-1-carboxamide], the IC50 was < 10 nM. `Cc1cc(F)c(NC(=O)N2CCCC(F)(F)C2)cc1-c1cc(OCCO)nc(N2CCOCC2)c1` [Example 24, 3,3-difluroo-N-(2-fluoro-5-(2-(2-hydroxyethoxy)-6-morpholinopyridin-4-yl)-4-methylphenyl)piperidine-1-carboxamide] was tested, and the IC50 was 10 to 100 nM. `Cc1cc(F)c(NC(=O)N2CCCC(O)(C(F)(F)F)C2)cc1-c1cc(OCCO)nc(N2CCOCC2)c1` (stereo not drawn) [Example 25, N-(2-fluoro-5-(2-(2-hydroxyethoxy)-6-morpholinopyridin-4-yl)-4-methylphenyl)-3-hydroxy-3-(trifluoromethyl)piperidine-1-carboxamide] was tested, and the IC50 was 10 to 100 nM. `Cc1cc(F)c(NC(=O)N2CCC3(CCC3)C2)cc1-c1cc(OCCO)nc(N2CCOCC2)c1` [Example 26, N-[2-fluoro-5-[2-(2-hydroxyethoxy)-6-(morpholin-4-yl)pyridin-4-yl]-4-methylphenyl]-6-azaspiro[3.4]octane-6-carboxamide] was tested, and the IC50 was < 10 nM. `Cc1cc(F)c(NC(=O)N2CCCC3(COC3)C2)cc1-c1cc(OCCO)nc(N2CCOCC2)c1` [Example 27, N-[2-fluoro-5-[2-(2-hydroxyethoxy)-6-(morpholin-4-yl)pyridin-4-yl]-4-methylphenyl]-2-oxa-6-azaspiro[3.5]nonane-6-carboxamide] gave an IC50 of 10 to 100 nM.
